Test results from US11241438B2, “Formulations of an AXL/MER inhibitor” (Incyte Corporation, priority 2018, dated 2022).
Where a name gives a salt, the structure may show the parent alone. Read-outs that look alike come from different tables or passages of the source.

Columns and labels:
phosphor-Axl [1] = target: T1, phosphor-Axl (Homo sapiens (Human), UniProt P30530); conditions: data disclosed in U.S. Pat. No. 9,981,975; cited from earlier work
c-Mer [2] = target: T2, c-Mer (Homo sapiens (Human), UniProt Q12866); conditions: data disclosed in U.S. Pat. No. 9,981,975; cited from earlier work
T2 sequence (Q12866 21-999): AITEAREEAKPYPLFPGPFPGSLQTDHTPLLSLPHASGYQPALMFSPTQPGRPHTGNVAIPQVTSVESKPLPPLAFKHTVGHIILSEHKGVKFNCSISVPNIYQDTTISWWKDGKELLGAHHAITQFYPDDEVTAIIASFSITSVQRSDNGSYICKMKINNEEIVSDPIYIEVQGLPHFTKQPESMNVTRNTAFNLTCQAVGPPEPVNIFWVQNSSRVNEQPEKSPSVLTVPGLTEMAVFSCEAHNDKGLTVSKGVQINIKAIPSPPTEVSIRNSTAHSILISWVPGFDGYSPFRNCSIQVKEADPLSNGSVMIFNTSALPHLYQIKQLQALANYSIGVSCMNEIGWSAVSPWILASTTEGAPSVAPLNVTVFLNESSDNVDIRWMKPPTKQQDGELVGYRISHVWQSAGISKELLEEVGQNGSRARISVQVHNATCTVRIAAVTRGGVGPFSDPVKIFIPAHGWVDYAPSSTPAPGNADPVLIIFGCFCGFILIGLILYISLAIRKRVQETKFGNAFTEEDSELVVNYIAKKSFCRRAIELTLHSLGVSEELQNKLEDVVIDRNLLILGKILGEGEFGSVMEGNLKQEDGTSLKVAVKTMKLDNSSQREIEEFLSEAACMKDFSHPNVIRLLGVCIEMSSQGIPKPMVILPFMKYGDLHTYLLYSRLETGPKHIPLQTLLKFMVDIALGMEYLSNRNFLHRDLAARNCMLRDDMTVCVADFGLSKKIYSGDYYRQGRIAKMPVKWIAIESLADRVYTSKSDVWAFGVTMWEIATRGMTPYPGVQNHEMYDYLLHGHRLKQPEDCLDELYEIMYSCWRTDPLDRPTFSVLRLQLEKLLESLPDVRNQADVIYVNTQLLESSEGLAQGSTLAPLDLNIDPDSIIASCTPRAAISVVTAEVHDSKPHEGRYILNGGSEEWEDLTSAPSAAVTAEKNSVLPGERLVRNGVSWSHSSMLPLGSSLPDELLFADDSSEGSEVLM

phosphor-Axl [3] = target: T1, phosphor-Axl; assay: TAM enzymatic assay (HTRF), Axl; type: biochemical
Method: Axl Autophosphorylation Assay
Autophosphorylation of Axl was carried out by incubating the recombinant Axl protein (Life Technologies, PV4275) in buffer containing 50 mM Tris, pH7.5, 0.2 mg/ml Axl, 5 mM ATP, 20 mM MgCl2 and 2 mM DTT at room temperature for 1 hour.
(§1) The kinase assay buffer contained 50 mM HEPES, pH7.5, 10 mM MgCl2, 1 mM EGTA, 0.01% NP-40 and 2 mM DTT. 0.1 ul test compounds dissolved in DMSO were transferred from compound plates to white 384-well assay plates (Greiner […] plates). The final concentration of DMSO was 1.25%. Enzyme solutions of 5.1 nM phosphor-Axl, or 0.0625 nM c-Mer (Carna Biosciences, 08-108), or 0.366 nM Tyro3 (Life Technologies, PR7480A) were prepared in assay buffer. A 1 mM stock solution of peptide substrate Biotin-[…]-amide SEQ ID NO: 1 (Quality Controlled Biochemicals, MA) dissolved in DMSO was diluted to 1 uM in assay buffer containing 2000 uM ATP. 4 ul enzyme solution (or assay buffer for the enzyme blank) was added to the appropriate wells in each plate, and then 4 ul/well substrate solution was added to initiate the reaction. […] The plate was incubated for 1 h at room temperature, and HTRF (homogenous time resolved fluorescence) signal was measured on a PHERAstar FS plate reader (BMG labtech). Percentage of inhibition was calculated for each concentration and IC50 value was generated from curve fitting with GraphPad Prism software.

c-Mer [4] = target: T2, c-Mer; assay: TAM enzymatic assay (HTRF), Mer; type: biochemical
Method: as §1, with “reaction. The plate was protected from light and incubated at room temperature for 60 min.” for “reaction.”

[5] = Solubility study in aqueous surfactant solutions; type: physicochemical; conditions: thermodynamic from solid, 37° C., after 60 minutes stirring, theoretical maximum 0.20 mg/ml, read-out: Concentration (solubility)
Method: The solubility of Compound I maleate was determined in aqueous solution in the presence of several surfactants at 37° C. The surfactants included sodium lauryl sulfate (SLS), poloxamer 188, and poloxamer 407 at a concentration of 0.2% (w/v) in water; a vessel without surfactant was included as a control. The experiment was performed in a Distek 2100 dissolution bath using 500 ml of media stirred at 100 RPM (USP type II dissolution apparatus). 100 mg of drug substance (free base equivalent) was added to the media to give a theoretical maximum concentration of 0.20 mg/ml. 5 ml samples were taken and filtered with a 0.45 micron GHP filter prior to analysis by HPLC. Listed below are the observed concentrations for the samples after 60 minutes of stirring time.

T1 sequence (P30530 26-894): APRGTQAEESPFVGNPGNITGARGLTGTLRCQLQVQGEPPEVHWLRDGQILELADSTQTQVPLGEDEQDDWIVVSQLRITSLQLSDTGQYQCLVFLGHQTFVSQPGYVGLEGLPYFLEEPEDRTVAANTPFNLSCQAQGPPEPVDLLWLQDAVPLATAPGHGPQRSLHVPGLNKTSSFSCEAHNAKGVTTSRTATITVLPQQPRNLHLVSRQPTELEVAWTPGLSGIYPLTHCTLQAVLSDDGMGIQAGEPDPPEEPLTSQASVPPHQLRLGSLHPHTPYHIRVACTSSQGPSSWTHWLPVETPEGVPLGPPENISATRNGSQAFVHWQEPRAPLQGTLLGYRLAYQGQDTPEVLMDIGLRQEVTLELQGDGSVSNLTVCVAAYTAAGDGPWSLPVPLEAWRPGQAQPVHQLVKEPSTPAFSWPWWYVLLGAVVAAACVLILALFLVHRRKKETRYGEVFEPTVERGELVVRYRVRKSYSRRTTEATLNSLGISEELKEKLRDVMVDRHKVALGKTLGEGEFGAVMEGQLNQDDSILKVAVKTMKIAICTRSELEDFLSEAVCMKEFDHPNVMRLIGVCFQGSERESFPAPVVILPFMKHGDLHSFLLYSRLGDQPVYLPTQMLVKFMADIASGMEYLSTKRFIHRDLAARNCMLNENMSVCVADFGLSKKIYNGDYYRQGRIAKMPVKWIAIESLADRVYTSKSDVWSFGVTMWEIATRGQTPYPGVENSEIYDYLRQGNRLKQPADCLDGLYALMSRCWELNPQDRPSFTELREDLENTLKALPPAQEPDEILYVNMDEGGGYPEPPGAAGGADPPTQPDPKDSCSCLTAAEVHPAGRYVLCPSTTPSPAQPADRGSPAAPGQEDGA

In the case of CC(C)C(=O)N1CCC(c2cc(-c3ccc(NC(=O)c4cn(C(C)C)c(=O)n(-c5ccccn5)c4=O)cc3)c3c(N)ncnn23)CC1 [Compound I trifluoroacetic acid salt], the IC50 (phosphor-Axl [1]) is listed as less than 5 nM and the IC50 (c-Mer [2]) is listed as less than 5 nM.

Work on CC(C)C(=O)N1CCC(c2cc(-c3ccc(NC(=O)c4cn(C(C)C)c(=O)n(-c5ccccn5)c4=O)cc3)c3c(N)ncnn23)CC1.O=C(O)/C=C\C(=O)O [Compound I maleate, N-(4-(4-amino-7-(1-isobutyrylpiperidin-4-yl)pyrrolo[2,1-f][1,2,4]triazin-5-yl)phenyl)-1-isopropyl-2,4-dioxo-3-(pyridin-2-yl)-1,2,3,4-tetrahydropyrimidine-5-carboxamide maleate] yielded an IC50 (phosphor-Axl [3]) of less than 5 nM, an IC50 (c-Mer [4]) of less than 5 nM and a solubility at 60 min ([5]; 0.2% (w/v) poloxamer 188 in water, aqueous with cosolvent or surfactant or cyclodextrin, 0.2% Poloxamer 188 in water) of 18 µg/mL. The solubility at 60 min ([5]; 0.2% (w/v) poloxamer 407 in water, aqueous with cosolvent or surfactant or cyclodextrin, 0.2% Poloxamer 407 in water) was 9 µg/mL, the solubility at 60 min ([5]; 0.2% (w/v) sodium lauryl sulfate in water, aqueous with cosolvent or surfactant or cyclodextrin, 0.2% SLS in water) was greater than 200 µg/mL and the solubility at 60 min ([5]; water without surfactant (control), water (no surfactant)) was 7 µg/mL.
